Experimental data taken from ChEMBL document CHEMBL4334508, “Oleanolic Acid Derivatives as Potential Inhibitors of HIV-1 Protease” (J Nat Prod, 2019).

biological target: Protease (Human immunodeficiency virus 1, UniProt Q9YQ12); assay: Inhibition of HIV1 protease expressed in Escherichia coli using Abz-Ala-Arg-Val-Nle-Tyr(NO2)-Glu-Ala-Nle-NH2 peptide as substrate by FRET assay
Sequence (Q9YQ12 whole entry): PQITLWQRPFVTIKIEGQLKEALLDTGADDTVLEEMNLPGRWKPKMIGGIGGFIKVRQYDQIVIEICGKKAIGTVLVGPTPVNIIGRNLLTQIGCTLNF

Point of comparison: `CC1(C)CC[C@]2(C(=O)NCCCCCC(=O)NCC(=O)O)CC[C@]3(C)C(=CC[C@@H]4[C@@]5(C)CC[C@H](OC(=O)c6ccccc6C(=O)O)C(C)(C)[C@@H]5CC[C@]43C)[C@@H]2C1`, IC50 3.1 µM. Against it:
- CCCCCCCCCCCC(=O)O[C@H]1CC[C@]2(C)[C@H]3CC=C4[C@@H]5CC(C)(C)CC[C@]5(C(=O)NCCCC(=O)N[C@@H](C)C(=O)O)CC[C@@]4(C)[C@]3(C)CC[C@H]2C1(C)C — higher, > 50 µM
- C[C@H](NC(=O)CCCCCNC(=O)[C@]12CCC(C)(C)C[C@H]1C1=CC[C@@H]3[C@@]4(C)CC[C@H](OC(=O)CC(C)(C)CC(=O)O)C(C)(C)[C@@H]4CC[C@@]3(C)[C@]1(C)CC2)C(=O)O — 7.8-fold higher, 24.1 µM
- CC(C)(CC(=O)O)CC(=O)O[C@H]1CC[C@]2(C)[C@H]3CC=C4[C@@H]5CC(C)(C)CC[C@]5(C(=O)NCCCCCC(=O)NCC(=O)O)CC[C@@]4(C)[C@]3(C)CC[C@H]2C1(C)C — 13-fold higher, 38.8 µM
- C[C@H](NC(=O)CCCCCCCCCCNC(=O)[C@]12CCC(C)(C)C[C@H]1C1=CC[C@@H]3[C@@]4(C)CC[C@H](OC(=O)c5ccccc5)C(C)(C)[C@@H]4CC[C@@]3(C)[C@]1(C)CC2)C(=O)O — higher, > 50 µM
- C[C@H](NC(=O)CCCNC(=O)[C@]12CCC(C)(C)C[C@H]1C1=CC[C@@H]3[C@@]4(C)CC[C@H](OC(=O)CCCC(=O)O)C(C)(C)[C@@H]4CC[C@@]3(C)[C@]1(C)CC2)C(=O)O — 2.1-fold higher, 6.6 µM
- CCCCCC(=O)O[C@H]1CC[C@]2(C)[C@H]3CC=C4[C@@H]5CC(C)(C)CC[C@]5(C(=O)NCCCCCC(=O)NCC(=O)O)CC[C@@]4(C)[C@]3(C)CC[C@H]2C1(C)C — higher, > 50 µM
- CC(C)(CC(=O)O)CC(=O)O[C@H]1CC[C@]2(C)[C@H]3CC=C4[C@@H]5CC(C)(C)CC[C@]5(C(=O)NCCCC(=O)NCC(=O)O)CC[C@@]4(C)[C@]3(C)CC[C@H]2C1(C)C — higher, > 50 µM
- CCCCCC(=O)O[C@H]1CC[C@]2(C)[C@H]3CC=C4[C@@H]5CC(C)(C)CC[C@]5(C(=O)NCCCCCC(=O)N[C@@H](C)C(=O)O)CC[C@@]4(C)[C@]3(C)CC[C@H]2C1(C)C — higher, > 50 µM
- CC(=O)O[C@H]1CC[C@]2(C)[C@H]3CC=C4[C@@H]5CC(C)(C)CC[C@]5(C(=O)NCCCCCCCCCCC(=O)NCC(=O)O)CC[C@@]4(C)[C@]3(C)CC[C@H]2C1(C)C — higher, > 50 µM
- CCCCCCCCCCCC(=O)O[C@H]1CC[C@]2(C)[C@H]3CC=C4[C@@H]5CC(C)(C)CC[C@]5(C(=O)NCCCCCCCCCCC(=O)NCC(=O)O)CC[C@@]4(C)[C@]3(C)CC[C@H]2C1(C)C — higher, > 50 µM
- CCC(=O)O[C@H]1CC[C@]2(C)[C@H]3CC=C4[C@@H]5CC(C)(C)CC[C@]5(C(=O)NCCCCCC(=O)N[C@@H](C)C(=O)O)CC[C@@]4(C)[C@]3(C)CC[C@H]2C1(C)C — 10-fold higher, 31 µM
- CC(C)(CC(=O)O)CC(=O)O[C@H]1CC[C@]2(C)[C@H]3CC=C4[C@@H]5CC(C)(C)CC[C@]5(C(=O)NCCCCCCCCCCC(=O)NCC(=O)O)CC[C@@]4(C)[C@]3(C)CC[C@H]2C1(C)C — higher, > 50 µM
- C[C@H](NC(=O)CCCCCNC(=O)[C@]12CCC(C)(C)C[C@H]1C1=CC[C@@H]3[C@@]4(C)CC[C@H](OC(=O)c5ccccc5)C(C)(C)[C@@H]4CC[C@@]3(C)[C@]1(C)CC2)C(=O)O — higher, > 50 µM
- CCCCCCCCCCCC(=O)O[C@H]1CC[C@]2(C)[C@H]3CC=C4[C@@H]5CC(C)(C)CC[C@]5(C(=O)NCCCCCC(=O)N[C@@H](C)C(=O)O)CC[C@@]4(C)[C@]3(C)CC[C@H]2C1(C)C — higher, > 50 µM
- CC(=O)O[C@H]1CC[C@]2(C)[C@H]3CC=C4[C@@H]5CC(C)(C)CC[C@]5(C(=O)NCCCCCCCCCCC(=O)N[C@@H](C)C(=O)O)CC[C@@]4(C)[C@]3(C)CC[C@H]2C1(C)C — higher, > 50 µM
- CC(=O)O[C@H]1CC[C@]2(C)[C@H]3CC=C4[C@@H]5CC(C)(C)CC[C@]5(C(=O)NCCCCCC(=O)N[C@@H](C)C(=O)O)CC[C@@]4(C)[C@]3(C)CC[C@H]2C1(C)C — 15-fold higher, 47.1 µM
- C[C@H](NC(=O)CCCNC(=O)[C@]12CCC(C)(C)C[C@H]1C1=CC[C@@H]3[C@@]4(C)CC[C@H](OC(=O)c5ccccc5)C(C)(C)[C@@H]4CC[C@@]3(C)[C@]1(C)CC2)C(=O)O — 15-fold higher, 47.1 µM
- CC1(C)CC[C@]2(C(=O)NCCCCCC(=O)NCC(=O)O)CC[C@]3(C)C(=CC[C@@H]4[C@@]5(C)CC[C@H](OC(=O)CCC(=O)O)C(C)(C)[C@@H]5CC[C@]43C)[C@@H]2C1 — higher, > 50 µM
- C[C@H](NC(=O)CCCCCNC(=O)[C@]12CCC(C)(C)C[C@H]1C1=CC[C@@H]3[C@@]4(C)CC[C@H](OC(=O)CCC(=O)O)C(C)(C)[C@@H]4CC[C@@]3(C)[C@]1(C)CC2)C(=O)O — 13-fold higher, 40.2 µM
- CCCCCCCCCCCC(=O)O[C@H]1CC[C@]2(C)[C@H]3CC=C4[C@@H]5CC(C)(C)CC[C@]5(C(=O)NCCCCCCCCCCC(=O)N[C@@H](C)C(=O)O)CC[C@@]4(C)[C@]3(C)CC[C@H]2C1(C)C — higher, > 50 µM
- C[C@H](NC(=O)CCCCCNC(=O)[C@]12CCC(C)(C)C[C@H]1C1=CC[C@@H]3[C@@]4(C)CC[C@H](OC(=O)CCCC(=O)O)C(C)(C)[C@@H]4CC[C@@]3(C)[C@]1(C)CC2)C(=O)O — 13-fold higher, 38.8 µM
- CCCC(=O)O[C@H]1CC[C@]2(C)[C@H]3CC=C4[C@@H]5CC(C)(C)CC[C@]5(C(=O)NCCCCCCCCCCC(=O)N[C@@H](C)C(=O)O)CC[C@@]4(C)[C@]3(C)CC[C@H]2C1(C)C — higher, > 50 µM
- CC1(C)CC[C@]2(C(=O)NCCCCCCCCCCC(=O)NCC(=O)O)CC[C@]3(C)C(=CC[C@@H]4[C@@]5(C)CC[C@H](OC(=O)c6ccccc6)C(C)(C)[C@@H]5CC[C@]43C)[C@@H]2C1 — higher, > 50 µM
- CC(=O)O[C@H]1CC[C@]2(C)[C@H]3CC=C4[C@@H]5CC(C)(C)CC[C@]5(C(=O)NCCCCCC(=O)NCC(=O)O)CC[C@@]4(C)[C@]3(C)CC[C@H]2C1(C)C — higher, > 50 µM
- CCCC(=O)O[C@H]1CC[C@]2(C)[C@H]3CC=C4[C@@H]5CC(C)(C)CC[C@]5(C(=O)NCCCC(=O)N[C@@H](C)C(=O)O)CC[C@@]4(C)[C@]3(C)CC[C@H]2C1(C)C — higher, > 50 µM
- CC(=O)O[C@H]1CC[C@]2(C)[C@H]3CC=C4[C@@H]5CC(C)(C)CC[C@]5(C(=O)NCCCC(=O)N[C@@H](C)C(=O)O)CC[C@@]4(C)[C@]3(C)CC[C@H]2C1(C)C — higher, > 50 µM
- CCCC(=O)O[C@H]1CC[C@]2(C)[C@H]3CC=C4[C@@H]5CC(C)(C)CC[C@]5(C(=O)NCCCCCCCCCCC(=O)NCC(=O)O)CC[C@@]4(C)[C@]3(C)CC[C@H]2C1(C)C — higher, > 50 µM
- CC1(C)CC[C@]2(C(=O)NCCCCCC(=O)NCC(=O)O)CC[C@]3(C)C(=CC[C@@H]4[C@@]5(C)CC[C@H](OC(=O)CCCC(=O)O)C(C)(C)[C@@H]5CC[C@]43C)[C@@H]2C1 — higher, > 50 µM
- CC1(C)CC[C@]2(C(=O)NCCCCCCCCCCC(=O)NCC(=O)O)CC[C@]3(C)C(=CC[C@@H]4[C@@]5(C)CC[C@H](OC(=O)CCCC(=O)O)C(C)(C)[C@@H]5CC[C@]43C)[C@@H]2C1 — higher, > 50 µM
- CC1(C)CC[C@]2(C(=O)NCCCCCCCCCCC(=O)NCC(=O)O)CC[C@]3(C)C(=CC[C@@H]4[C@@]5(C)CC[C@H](OC(=O)c6ccccc6C(=O)O)C(C)(C)[C@@H]5CC[C@]43C)[C@@H]2C1 — within 1.5-fold, 2.3 µM
- CCC(=O)O[C@H]1CC[C@]2(C)[C@H]3CC=C4[C@@H]5CC(C)(C)CC[C@]5(C(=O)NCCCCCCCCCCC(=O)N[C@@H](C)C(=O)O)CC[C@@]4(C)[C@]3(C)CC[C@H]2C1(C)C — higher, > 50 µM
- CCCCCC(=O)O[C@H]1CC[C@]2(C)[C@H]3CC=C4[C@@H]5CC(C)(C)CC[C@]5(C(=O)NCCCC(=O)N[C@@H](C)C(=O)O)CC[C@@]4(C)[C@]3(C)CC[C@H]2C1(C)C — higher, > 50 µM
- CCCCCCCCCCCC(=O)O[C@H]1CC[C@]2(C)[C@H]3CC=C4[C@@H]5CC(C)(C)CC[C@]5(C(=O)NCCCCCC(=O)NCC(=O)O)CC[C@@]4(C)[C@]3(C)CC[C@H]2C1(C)C — higher, > 50 µM
- CC1(C)CC[C@]2(C(=O)NCCCCCC(=O)NCC(=O)O)CC[C@]3(C)C(=CC[C@@H]4[C@@]5(C)CC[C@H](OC(=O)c6ccccc6)C(C)(C)[C@@H]5CC[C@]43C)[C@@H]2C1 — higher, > 50 µM
- C[C@H](NC(=O)CCCNC(=O)[C@]12CCC(C)(C)C[C@H]1C1=CC[C@@H]3[C@@]4(C)CC[C@H](OC(=O)CCC(=O)O)C(C)(C)[C@@H]4CC[C@@]3(C)[C@]1(C)CC2)C(=O)O — higher, > 50 µM
- CCCC(=O)O[C@H]1CC[C@]2(C)[C@H]3CC=C4[C@@H]5CC(C)(C)CC[C@]5(C(=O)NCCCCCC(=O)N[C@@H](C)C(=O)O)CC[C@@]4(C)[C@]3(C)CC[C@H]2C1(C)C — 13-fold higher, 40 µM
- CCC(=O)O[C@H]1CC[C@]2(C)[C@H]3CC=C4[C@@H]5CC(C)(C)CC[C@]5(C(=O)NCCCC(=O)N[C@@H](C)C(=O)O)CC[C@@]4(C)[C@]3(C)CC[C@H]2C1(C)C — higher, > 50 µM
- CCC(=O)O[C@H]1CC[C@]2(C)[C@H]3CC=C4[C@@H]5CC(C)(C)CC[C@]5(C(=O)NCCCCCCCCCCC(=O)NCC(=O)O)CC[C@@]4(C)[C@]3(C)CC[C@H]2C1(C)C — higher, > 50 µM
- CCCC(=O)O[C@H]1CC[C@]2(C)[C@H]3CC=C4[C@@H]5CC(C)(C)CC[C@]5(C(=O)NCCCCCC(=O)NCC(=O)O)CC[C@@]4(C)[C@]3(C)CC[C@H]2C1(C)C — higher, > 50 µM
- CCCCCC(=O)O[C@H]1CC[C@]2(C)[C@H]3CC=C4[C@@H]5CC(C)(C)CC[C@]5(C(=O)NCCCCCCCCCCC(=O)N[C@@H](C)C(=O)O)CC[C@@]4(C)[C@]3(C)CC[C@H]2C1(C)C — higher, > 50 µM
- CCC(=O)O[C@H]1CC[C@]2(C)[C@H]3CC=C4[C@@H]5CC(C)(C)CC[C@]5(C(=O)NCCCCCC(=O)NCC(=O)O)CC[C@@]4(C)[C@]3(C)CC[C@H]2C1(C)C — higher, > 50 µM
- CC1(C)CC[C@]2(C(=O)NCCCCCCCCCCC(=O)NCC(=O)O)CC[C@]3(C)C(=CC[C@@H]4[C@@]5(C)CC[C@H](OC(=O)CCC(=O)O)C(C)(C)[C@@H]5CC[C@]43C)[C@@H]2C1 — higher, > 50 µM
- CCCCCC(=O)O[C@H]1CC[C@]2(C)[C@H]3CC=C4[C@@H]5CC(C)(C)CC[C@]5(C(=O)NCCCCCCCCCCC(=O)NCC(=O)O)CC[C@@]4(C)[C@]3(C)CC[C@H]2C1(C)C — higher, > 50 µM
- C[C@H](NC(=O)CCCNC(=O)[C@]12CCC(C)(C)C[C@H]1C1=CC[C@@H]3[C@@]4(C)CC[C@H](OC(=O)CC(C)(C)CC(=O)O)C(C)(C)[C@@H]4CC[C@@]3(C)[C@]1(C)CC2)C(=O)O — higher, > 50 µM
